Measurements: patent US10111875B2, “Pyrrolopyrimidine compounds and uses thereof” (HUTCHISON MEDIPHARMA LIMITED, priority 2010, dated 2018)
Where two headings read alike, the source gives them in different places.

How the values were obtained:
[1] = molecular target: Recombinant human JAK1 catalytic domain (Homo sapiens (Human), UniProt P23458); experiment: JAK1 kinase assay (Z'-LYTE Tyr 6 Peptide); assay type: biochemical; conditions: read-out: inhibition percentage (IR %)
Description: JAK1/2/3 kinase assay are performed in vitro using Kit-Tyr 6 Peptide (Invitrogen, Cat. No. PV4122). TYK2 kinase assay are performed in vitro using Z′-LYTE™ Kinase Assay Kit-Tyr 3 Peptide (Invitrogen, Cat. No. PV3192). […] All compounds are initially tested at 8 different concentrations (1 μM down to 0.0003 μM) using a 1:3 serial dilution scheme.

[2] = system: IL-6-induced STAT3 phosphorylation, HepG2 cells; experiment: IL-6-induced STAT3 phosphorylation in HepG2 cells; assay type: cell-based, human; conditions: IL-6 stimulation, read-out: pSTAT3 (IC50)
Description: For the determination of IL-6-induced STAT3 phosphorylation, HepG2 cells (SIBS) are seeded in 96 well plates at […] cells per well in Serum Free DMEM media overnight and incubated in the presence or absence of various concentrations of diluted compound for 30 min at 37° C., 5% CO2. Cells were stimulated by adding 10 ng/ml human recombinant IL-6 to each well for 15 minutes at 37° C., 5% CO2. Cells are then fixed in 2% paraformaldehyde for 45 minutes at room temperature and incubated in ice-cold methanol for 30 minutes. After washing in PBS, cells are incubated with rabbit anti-phospho-STAT3 (Y705) (Cell Signaling Technologies, 1:1000 in antibody dilution solution) primary antibody overnight at 4° C. Goat anti-rabbit IgG Alexa 488 (Invitrogen, 1:1,000 dilution in PBS) secondary antibody is added for 90 minutes prior to PBS washes. Cells are counted following incubation in a 7.5 uM propidium iodide, 100 μg/ml RNaseA, PBS solution for 60 minutes in the dark. Plates are read on an Acumen X3 instrument (TPP Labtech).
(§1) Percent inhibition is calculated using the following formula: Inhibition (%)=100−((inhibitor treatment−cell)/(stimulator−cell))×100
(§2) where: Inhibitor treatment represents cell activation percentage of wells treated by both compound and stimulator (IL-6, IL-3 or IL-4); Cell represents the cell activation percentage of wells treated by neither compound nor stimulator (IL-6, IL-3 or IL-4). Stimulator represents the cell activation percentage of wells treated by stimulator (IL-6, IL-3 or IL-4) only.

[3] = system: IL-3-induced STAT5 phosphorylation, TF-1 cells; experiment: IL-3-induced STAT5 phosphorylation in TF-1 cells; assay type: cell-based, human; conditions: IL-3 stimulation, read-out: pSTAT5 (IC50)
Description: For the determination of IL-3-induced STAT5 phosphorylation, TF-1 cells (ATCC) are plated in 96 well plates at 1×10^4 cells per well in 10% FBS RPMI-1640 media at 37° C., 5% CO2 for 3 hours. Cells were incubated in the presence or absence of various concentrations of diluted compound for 30 min at 37° C., 5% CO2. Cells were stimulated by adding 10 ng/ml human recombinant IL-3 to each well for 30 minutes at 37° C., 5% CO2. Cells are then fixed in 2% paraformaldehyde for 45 minutes at room temperature and incubated in ice-cold methanol for 30 minutes. After washing in PBS, cells are incubated with rabbit anti-phospho-STAT5 (Y694) (Cell Signaling Technologies, 1:1000 in antibody dilution solution) primary antibody overnight at 4° C. Goat anti-rabbit IgG Alexa 488 (Invitrogen, 1:1,000 dilution in PBS) secondary antibody is added for 90 minutes prior to PBS washes. Cells are counted following incubation in a 7.5 uM propidium iodide, 100 µg/ml RNaseA, PBS solution for 60 minutes in the dark. Plates are read on an Acumen X3 instrument (TPP Labtech).
as §1, §2

[4] = system: IL-4-induced STAT6 phosphorylation, Ramos cells; experiment: IL-4-induced STAT6 phosphorylation in Ramos cells; assay type: cell-based; conditions: Homo sapiens, IL-4 stimulation, read-out: pSTAT6 (IC50)
Description: For the determination of IL-4-induced STAT6 phosphorylation, Ramos cells (ATCC) are plated in 96 well plates at 1.0×10^4 cells per well 10% FBS RPMI-1640 and incubated at 37° C., 5% CO2 for 3 hours. Cells were incubated with compounds for 30 minutes prior to stimulation with interleukin-4 (10 ng/ml final) for an additional 30 minutes. Cells are then fixed in 2% paraformaldehyde for 45 minutes and incubated in ice-cold methanol for 30 minutes. After washing in PBS, cells are incubated with rabbit anti-phospho-STAT6 (Y641) (Cell Signaling Technologies, 1:1000 in antibody dilution solution) primary antibody overnight at 4° C. Goat anti-rabbit IgG Alexa 488 (Invitrogen, 1:1,000 dilution in PBS) secondary antibody is added for 90 minutes prior to PBS washes. Cells are counted following incubation in a 7.5 uM propidium iodide, 100 µg/ml RNaseA, PBS solution for 60 minutes in the dark. Plates are read on an Acumen X3 instrument (TPP Labtech).
as §1, §2

[5] = JAK1 kinase assay, 0.3 uM concentration

Chain of Recombinant human JAK1 catalytic domain (P23458 875-1153): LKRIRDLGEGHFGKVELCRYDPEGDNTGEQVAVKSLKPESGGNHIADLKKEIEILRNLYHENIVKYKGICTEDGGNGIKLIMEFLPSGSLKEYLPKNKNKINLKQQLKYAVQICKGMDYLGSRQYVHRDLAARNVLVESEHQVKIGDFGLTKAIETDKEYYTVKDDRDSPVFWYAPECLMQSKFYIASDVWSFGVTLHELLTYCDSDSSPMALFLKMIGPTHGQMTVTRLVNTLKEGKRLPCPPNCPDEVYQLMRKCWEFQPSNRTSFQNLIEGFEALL

inhibition at 0.3 µM [1, 5] [%]	Compound	also measured
50 to 100	CNS(=O)(=O)N(C)[C@@H]1CCN(c2ncnc3[nH]ccc23)C1 [Compound 47]	IC50 ([2]; Homo sapiens): 824 nM; IC50 ([3]; Homo sapiens): 1490 nM; IC50 [4]: 1150 nM
50 to 100	CN(c1ccc(C#N)c(F)c1)[C@@H]1CCN(c2ncnc3[nH]ccc23)C1 [Compound 105]	IC50 ([2]; Homo sapiens): 9 nM; IC50 ([3]; Homo sapiens): 1680 nM
–	CN(c1ncc(C#N)cn1)[C@@H]1CCN(c2ncnc3[nH]ccc23)C1 [Compound 142, (R)-2-((1-(7H-pyrrolo[2,3-d]pyrimidin-4-yl)pyrrolidin-3-yl)(methyl)amino)pyrimidine-5-carbonitrile]	inhibition at 0.3 µM [1]: 20 to 50%; IC50 ([2]; Homo sapiens): 65 nM; IC50 ([3]; Homo sapiens): 3070 nM; IC50 [4]: 336 nM
–	CN(c1ccc(C(=O)Nc2nccs2)cn1)[C@@H]1CCN(c2ncnc3[nH]ccc23)C1 [Compound 199]	IC50 [2]: 50 nM; IC50 [3]: 7550 nM
50 to 100	CN(c1ccc(C(=O)N[C@@H]2c3ccccc3C[C@H]2O)cc1F)[C@@H]1CCN(c2ncnc3[nH]ccc23)C1 [Compound 206]	IC50 ([2]; Homo sapiens): 23.9 nM; IC50 ([3]; Homo sapiens): 693 nM; IC50 [4]: 180 nM
50 to 100	Cc1ccc(CS(=O)(=O)Nc2ccc(N(C)[C@@H]3CCN(c4ncnc5[nH]ccc45)C3)nc2)cc1 [Compound 222]	–
50 to 100	CN(c1ccc(NS(=O)(=O)Cc2ccccc2Cl)cn1)[C@@H]1CCN(c2ncnc3[nH]ccc23)C1 [Compound 223]	–
50 to 100	CN(c1ccc(NS(=O)(=O)Cc2cccc(Cl)c2)cn1)[C@@H]1CCN(c2ncnc3[nH]ccc23)C1 [Compound 224]	–
50 to 100	CN(c1ccc(NS(=O)(=O)Cc2ccc(Cl)cc2)cn1)[C@@H]1CCN(c2ncnc3[nH]ccc23)C1 [Compound 225]	–
50 to 100	CN(c1ccc(NC(=O)c2cccc(F)c2)cn1)[C@@H]1CCN(c2ncnc3[nH]ccc23)C1 [Compound 226]	–
50 to 100	CN(c1ccc(NC(=O)c2ccccc2Cl)cn1)[C@@H]1CCN(c2ncnc3[nH]ccc23)C1 [Compound 227]	–
20 to 50	COCC(=O)Nc1ccc(N(C)[C@@H]2CCN(c3ncnc4[nH]ccc34)C2)nc1 [Compound 228]	–
50 to 100	CN(c1ccc(NC(=O)C2CC2)cn1)[C@@H]1CCN(c2ncnc3[nH]ccc23)C1 [Compound 229]	–
–	CN(c1ccc(NCc2ccc(F)cc2)cn1)[C@@H]1CCN(c2ncnc3[nH]ccc23)C1 [Compound 230, (R)—N^5-(4-fluorobenzyl)-N^2-(1-(7H-pyrrolo[2,3-d]pyrimidin-4-yl)pyrrolidin-3-yl)-N^2-methylpyridine-2,5-diamine]	inhibition at 0.3 µM [1]: 50 to 100%
20 to 50	CN(c1ccc(S(=O)(=O)NC2c3ccccc3C[C@H]2O)cn1)[C@@H]1CCN(c2ncnc3[nH]ccc23)C1 (stereo partly shown) [Compound 232]	–
50 to 100	CN(c1ccc(S(N)(=O)=O)cn1)[C@@H]1CCN(c2ncnc3[nH]ccc23)C1 [Compound 234]	IC50 ([2]; Homo sapiens): 337 nM; IC50 ([3]; Homo sapiens): 857 nM; IC50 [4]: 385 nM
50 to 100	CN(c1ccc(S(=O)(=O)NCC2CC2)cn1)[C@@H]1CCN(c2ncnc3[nH]ccc23)C1 [Compound 235]	–
50 to 100	CN(c1ccc(S(=O)(=O)NC2CC2)cn1)[C@@H]1CCN(c2ncnc3[nH]ccc23)C1 [Compound 236]	–
50 to 100	COCCNS(=O)(=O)c1ccc(N(C)[C@@H]2CCN(c3ncnc4[nH]ccc34)C2)nc1 [Compound 237]	–
50 to 100	CN(c1ccc(S(=O)(=O)NC(C)(C)C)cn1)[C@@H]1CCN(c2ncnc3[nH]ccc23)C1 [Compound 238]	–

inhibition at 0.3 µM [1, 5] [%]	Compound	also measured
50 to 100	CNS(=O)(=O)c1ccc(N(C)[C@@H]2CCN(c3ncnc4[nH]ccc34)C2)nc1 [Compound 239]	–
50 to 100	CCNS(=O)(=O)c1ccc(N(C)[C@@H]2CCN(c3ncnc4[nH]ccc34)C2)nc1 [Compound 240]	–
50 to 100	CN(c1ccc(S(=O)(=O)NC2COC2)cn1)[C@@H]1CCN(c2ncnc3[nH]ccc23)C1 [Compound 242]	–
50 to 100	CN(c1ccc(S(=O)(=O)NCCO)cn1)[C@@H]1CCN(c2ncnc3[nH]ccc23)C1 [Compound 243]	–
50 to 100	C[C@@H](O)CNS(=O)(=O)c1ccc(N(C)[C@@H]2CCN(c3ncnc4[nH]ccc34)C2)nc1 [Compound 244]	–
50 to 100	C[C@H](O)CNS(=O)(=O)c1ccc(N(C)[C@@H]2CCN(c3ncnc4[nH]ccc34)C2)nc1 [Compound 245]	–
50 to 100	CN(c1ccc(S(=O)(=O)NC2CCC[C@@H]2O)cn1)[C@@H]1CCN(c2ncnc3[nH]ccc23)C1 (stereo partly shown) [Compound 246]	–
50 to 100	CN(c1ccc(S(=O)(=O)N2CCCC2)cn1)[C@@H]1CCN(c2ncnc3[nH]ccc23)C1 [Compound 247]	–
50 to 100	CN(C)CCNS(=O)(=O)c1ccc(N(C)[C@@H]2CCN(c3ncnc4[nH]ccc34)C2)nc1 [Compound 248]	–
50 to 100	COCC1CCCN1S(=O)(=O)c1ccc(N(C)[C@@H]2CCN(c3ncnc4[nH]ccc34)C2)nc1 (stereo partly shown) [Compound 249]	–
20 to 50	CN(c1ccc(S(=O)(=O)Nc2ccn(C)n2)cn1)[C@@H]1CCN(c2ncnc3[nH]ccc23)C1 [Compound 250]	–
50 to 100	CN(c1ccc(S(=O)(=O)N2CCNCC2)cn1)[C@@H]1CCN(c2ncnc3[nH]ccc23)C1 [Compound 251]	–
50 to 100	CN(c1ccc(S(=O)(=O)N2CCOCC2)cn1)[C@@H]1CCN(c2ncnc3[nH]ccc23)C1 [Compound 252]	–
50 to 100	CN(c1ccc(S(=O)(=O)Nc2ccc(F)cc2)cn1)[C@@H]1CCN(c2ncnc3[nH]ccc23)C1 [Compound 253]	–
50 to 100	CN(c1ccc(S(=O)(=O)NCc2ccc(F)cc2)cn1)[C@@H]1CCN(c2ncnc3[nH]ccc23)C1 [Compound 254]	–
50 to 100	C[C@@H](NS(=O)(=O)c1ccc(N(C)[C@@H]2CCN(c3ncnc4[nH]ccc34)C2)nc1)c1ccc(F)cc1 [Compound 255]	–
50 to 100	C[C@H](NS(=O)(=O)c1ccc(N(C)[C@@H]2CCN(c3ncnc4[nH]ccc34)C2)nc1)c1ccc(F)cc1 [Compound 256]	–
20 to 50	CN(c1ccc(S(=O)(=O)NC[C@@H]2CCCO2)cn1)[C@@H]1CCN(c2ncnc3[nH]ccc23)C1 [Compound 257]	–
50 to 100	CN(c1ccc(S(=O)(=O)NC2CCOCC2)cn1)[C@@H]1CCN(c2ncnc3[nH]ccc23)C1 [Compound 259]	–
50 to 100	CN(c1ccc(C#N)c(O)n1)[C@@H]1CCN(c2ncnc3[nH]ccc23)C1 [Compound 260]	–
